Experimental data from paper PMC10937556, “Phenolic phytochemistry, in vitro, in silico, in vivo, and mechanistic anti-inflammatory and antioxidant evaluations of Habenaria digitata” (Frontiers in Pharmacology, 2024).

Key:
CAT = assay: In vivo antioxidant: CAT activity; design: species or system mice; details: high tested dose
Protocol: Twenty male albino mice were distributed into four groups, each with five mice. The control group (group 1) received 0.4 mL of distilled water. The compound was given in doses of 2.5, 5, and 10 mg/kg to groups 2, 3, and 4, respectively. Throughout the trial, the mice were given a daily dose for 3 weeks and were evaluated for alterations, other symptoms of toxicity, and death on a daily basis. […]
[…] […] The reaction was started by adding 0.1 mL of fresh 30 mM H2O2, and the decomposition rate of H2O2 was measured on a spectrophotometer at 240 nm for 5 min. Catalase activity was determined using a molar extinction coefficient of 0.041 mM^−1 cm^−1.

[1] = H2O2 free radical scavenging activity
Protocol: The antioxidant potential of isolated compounds was determined using this approach. In a phosphate buffer solution (50 mM, pH 7.40), a solution of H2O2 (2 mM) was produced. The crude extract (0.10 mL) was measured in a test tube and diluted to 0.40 mL using phosphate buffer. Thereafter, H2O2 (0.60 mL) was added and thoroughly mixed. […] 230 nm was used to measure the absorbance of the sample and the standard ([Sadiq et al., 2018]). For all the crude samples, the exact process was followed. According to the procedure, the inhibition percentage and IC50 values were computed.

GSH-Px = assay: In vivo antioxidant: GSH-Px activity in brain, heart, liver; details: D-galactose aging mice
Protocol: Twenty male albino mice were distributed into four groups, each with five mice. The control group (group 1) received 0.4 mL of distilled water. The compound was given in doses of 2.5, 5, and 10 mg/kg to groups 2, 3, and 4, respectively. Throughout the trial, the mice were given a daily dose for 3 weeks and were evaluated for alterations, other symptoms of toxicity, and death on a daily basis. Blood obtained by a direct heart puncture was utilized to assess the compound’s in vivo antioxidant activity 24 hours following the last dose ([Mota et al., 2023]).
The brain, liver, and heart homogenates were prepared in the cold saline via a homogenizer, and the unsolvable extract was discarded by centrifugation at 10,000 rpm for 15 min at temperature 4°C. After that, the supernatant was extracted immediately for GSH-Px assay ([Li et al., 2021]).

[2] = test system: bradykinin-induced paw edema; assay: Bradykinin-induced paw edema
Protocol: Employing prostaglandin E2, bradykinin, leukotriene, and histamine induced paw edema assays; the potential anti-inflammatory mechanism of the isolated compound was investigated. […] Sub-planter injections of prostaglandin E2 (0.01 mg/mL) or 10 mg/mL leukotriene or bradykinin (20 mg/mL) or 0.1 mL histamine (1 mg/mL) produced paw edema after 1 h. Each mouse’s paw volume was assessed immediately before and after sub-planter injection of various irritants (inflammatory agents) at 1–5 h.

5-LOX = target: T1, 5-LOX (Homo sapiens, UniProt P09917); assay: 5-Lipoxygenase (5-LOX) inhibition assay; format: biochemical; details: for inhibition at 62.5 µg/mL: 62.50 μg/mL; for inhibition at 62.5 µg/mL / inhibition at 125 µg/mL / inhibition at 250 µg/mL / inhibition at 500 µg/mL / inhibition at 1000 µg/mL: read-out: % 5-LOX inhibitions; for inhibition at 1000 µg/mL: 1,000 µg/mL; for % 5-LOX inhibitions: 1,000 μg/mL
T1 construct: purchased Sigma-Aldrich (local distributor) 437996
T1 sequence (P09917 1-674): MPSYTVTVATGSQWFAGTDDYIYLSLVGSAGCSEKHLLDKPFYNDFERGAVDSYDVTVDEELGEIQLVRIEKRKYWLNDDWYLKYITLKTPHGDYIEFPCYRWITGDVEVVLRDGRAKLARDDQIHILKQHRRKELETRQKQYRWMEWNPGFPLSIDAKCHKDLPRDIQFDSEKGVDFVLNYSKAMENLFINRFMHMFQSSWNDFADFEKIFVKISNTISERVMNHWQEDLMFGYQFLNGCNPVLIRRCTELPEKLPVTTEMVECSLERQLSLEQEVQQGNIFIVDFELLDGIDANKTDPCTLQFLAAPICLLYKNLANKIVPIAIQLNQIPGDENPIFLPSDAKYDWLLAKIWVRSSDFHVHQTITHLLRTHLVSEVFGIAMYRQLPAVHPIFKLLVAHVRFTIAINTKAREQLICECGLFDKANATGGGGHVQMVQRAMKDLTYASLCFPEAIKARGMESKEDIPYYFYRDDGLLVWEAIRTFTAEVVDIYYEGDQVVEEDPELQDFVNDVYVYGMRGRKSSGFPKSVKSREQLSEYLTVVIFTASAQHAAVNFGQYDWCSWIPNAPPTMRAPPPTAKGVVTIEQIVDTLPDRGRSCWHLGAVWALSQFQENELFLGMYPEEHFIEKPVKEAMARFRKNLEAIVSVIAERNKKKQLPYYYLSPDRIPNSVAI
Protocol: The 5-LOX inhibitory experiments on H. digitata samples were carried out as per published protocol ([Pervaiz et al., 2022]). Several concentrations of plant samples were made, with concentrations ranging from 31.25 to 1,000 μg/mL. Thereafter, 5-LOX was primed with 10,000 U/mL solutions. Linoleic acid (80 mM) was used as the substrate. Likewise, 50 mM phosphate buffer with a pH of 6.3 was primed. Plant samples of varied quantities were dissolved in 250 µL of phosphate buffer, and then, 250 µL of the lipoxygenase enzyme solution was added and incubated for 5 min at room temperature. A volume of 1,000 µL of the substrate solution with a concentration of 0.6 mM was added to the enzyme solution and shaken. The absorbance at 234 nm was observed. All of the tests were conducted three times. In this test, zileuton served as a positive control. The percentage inhibition was determined using the following equation: Percentage Inhibition=Control Abs. −Sample Abs. /Control Abs. ×100.
The IC50 values were derived by plotting the inhibitions against the concentrations of the tested sample solution.

[3] = test system: carrageenan-induced paw edema; assay: Carrageenan-induced paw edema; format: in vivo, mice
Protocol: Mice of both sexes (25–30 g) were used for in vivo anti-inflammatory activity of test samples on the carrageenan-induced inflammation model ([Munir et al., 2020]). Mice were distributed into five groups, with eight animals in each group, divided at random. Group-I served as the negative control and received DMSO at a dose of 10 mL/kg body weight. Group-II served as a positive control, which received aspirin at a dose of 100 mg/kg body weight. […] Each mouse received 1 percent (w/v) saline solution (0.05 mL) of carrageenan in the sub-planter region after a 30-min interval. The paw edema volume was determined using a plethysmometer (LE 7500-plan lab S.L) at 1–5 h intervals after carrageenan was given. […] The percentages of inhibition of inflammation were calculated using the formula given below: % inhibition=EC−ET/EC×100, where “EC” is the average edema of control and “ET” is the edema of the tested group.

Structure (SMILES) | H2O2 IC50 [1] | H2O2 % inhibition ([1]; 62.5 µg/mL) | H2O2 % inhibition ([1]; 125 µg/mL) | H2O2 % inhibition ([1]; 250 µg/mL) | H2O2 % inhibition ([1]; 500 µg/mL) | H2O2 % inhibition ([1]; 1,000 µg/mL) | IC50 (5-LOX) | inhibition at 62.5 µg/mL (5-LOX) | inhibition at 125 µg/mL (5-LOX) | inhibition at 250 µg/mL (5-LOX) | inhibition at 500 µg/mL (5-LOX) | inhibition at 1000 µg/mL (5-LOX) | also measured
Cc1cnc(O)nc1O [Compound 1, 5-methylpyrimidine-24,4-diol] | 05 µg/mL | 69.91 ± 1.30 ^ns % | 71.76 ± 0.61 ^ns % | 76.87 ± 1.27 ^ns % | 81.13 ± 0.20^ns % | 85.20 ± 0.23^ns % | 58.7 µM | 65.68 ± 0.64% | 71.42 ± 0.46% | 76.53 ± 0.41% | 82.45 ± 0.55% | 87.63 ± 0.64% | CAT activity (CAT; brain): 97 U/mL; CAT activity (CAT; heart): 143.02 U/mg protein; CAT activity (CAT; liver): 139.0 U/mg protein; GSH-Px activity in brain, heart and liver (GSH-Px): enhances the activity of GSH-Px; Percentage inhibition of bradykinin-induced paw edema ([2]; 20 mg/kg, initial hour): 9.20 ± 1.12%; Activity against bradykinin-induced paw edema ([2]; low doses): no activity; Percentage inhibition of paw edema ([3]; dose 5 mg/kg, 1 h): 46.72 ± 2.63 ns %; Percentage inhibition of paw edema ([3]; dose 5 mg/kg, 2 h): 50.46 ± 2.52 %; Percentage inhibition of paw edema ([3]; dose 5 mg/kg, 3 h): 53.58 ± 1.33 %; Percentage inhibition of paw edema ([3]; dose 5 mg/kg, 4 h): 52.37 ± 1.46 %; Percentage inhibition of paw edema ([3]; dose 5 mg/kg, 5 h): 55.23 ± 1.61 %; Percentage inhibition of paw edema ([3]; dose 10 mg/kg, 1 h): 51.37 ± 2.23 %; Percentage inhibition of paw edema ([3]; dose 10 mg/kg, 2 h): 53.56 ± 3.57 %; Percentage inhibition of paw edema ([3]; dose 10 mg/kg, 3 h): 56.56 ± 1.57 %; Percentage inhibition of paw edema ([3]; dose 10 mg/kg, 4 h): 55.76 ± 2.62 %; Percentage inhibition of paw edema ([3]; dose 10 mg/kg, 5 h): 61.68 ± 2.77 %; Percentage inhibition of paw edema ([3]; dose 20 mg/kg, 1 h): 54.27 ± 3.06 %; Percentage inhibition of paw edema ([3]; dose 20 mg/kg, 2 h): 56.38 ± 1.67 %; Percentage inhibition of paw edema ([3]; dose 20 mg/kg, 3 h): 59.74 ± 2.67 %; Percentage inhibition of paw edema ([3]; dose 20 mg/kg, 4 h): 58.02 ± 1.95 %
CC1=C(O)C(=O)C(O)CO1 (stereo not shown) [Compound 2, 3,5-dihydroxy-6-methyl-2,3-dihydro-4H-pyran-4-one] | 06 µg/mL | 67.90 ± 1.16 ^ns % | 71.34 ± 0.55 ^ns % | 75.36 ± 0.49 ^ns % | 80.39 ± 0.49 ^ns % | 86.39 ± 0.60 ^ns % | 73.9 µM | 61.35 ± 0.18% | 66.2 ± 0.15% | 73.42 ± 0.11% | 78.62 ± 0.17% | 83.53 ± 0.2% | –
Cc1ccc(C(C)C)c(O)c1 [Compound 3, 2-isopropyl-5-methylphenol] | 33 µg/mL | 58.74 ± 0.68 % | 62.70 ± 1.25 % | 67.05 ± 0.75 % | 72.32 ± 1.06 % | 77.34 ± 0.98 % | 174 µM | 51.9 ± 1.16% | 57.34 ± 0.55% | 61.36 ± 0.49% | 67.39 ± 0.49% | 73.39 ± 0.6% | –
C=Cc1ccc(O)cc1OC [Compound 4, 3-methoxy-4-vinylphenol] | 65 µg/mL | 53.90 ± 0.48 % | 57.03 ± 0.48 % | 62.90 ± 0.96 % | 65.65 ± 1.34 % | 69.58 ± 1.12 % | 182 µM | 59.8 ± 0.65% | 66.7 ± 0.78% | 75.7 ± 0.62% | 80.76 ± 0.63% | 76.7 ± 0.66% | % 5-LOX inhibitions (5-LOX; listed as Comp 4): 84.83 ± 0.62 %
C=Cc1cc(OC)c(O)c(OC)c1 [Compound 5, 2,6-dimethoxy-4-vinylphenol] | 35 µg/mL | 57.51 ± 0.62 % | 62.46 ± 0.47 % | 66.68 ± 0.64 % | 70.53 ± 0.41 % | 76.42 ± 0.46 % | 171 µM | 49.9 ± 0.65% | 57.2 ± 0.57% | 65.5 ± 1.04% | 71.3 ± 1.11% | 84.83 ± 0.62% | % 5-LOX inhibitions (5-LOX; listed as Comp 5): 76.7 ± 0.66 %
